Data as given in patent US20210392889A1, “COMPOSITIONS COMPRISING PYRIDINE CARBOXYLATE HERBICIDES WITH PDS INHIBITOR HERBICIDES” (Corteva Agriscience LLC, priority 2018, published 2021).

Columns and labels:
[1] = system: Canada thistle (CIRAR, Cirsium arvense); experiment: Greenhouse postemergence herbicidal effect, visual injury after 20-22 d; format: in vivo
Source text: (§1) Seeds of the desired test plant species were planted in a 90:10% v/v (volume/volume) mixture of PRO-MIX® BX (Premier Tech Horticulture, Quakertown, Pa., USA) and PROFILE® GREENS GRADE™ (Profile Products LLC, Buffalo Grove, Ill., USA) planting mixture, which typically has a pH of 5.2 to 6.2 and an organic matter content of at least 50 percent, in plastic pots with a surface area of 103.2 square centimeters (cm^2). In some aspects, to ensure good germination and healthy plants, a fungicide treatment and/or other chemical or physical treatment was applied. The plants were grown for 7-36 days (d) in a greenhouse with an approximate 14-hour (h) photoperiod which was maintained at about 23° C. during the day and 22° C. during the night. Nutrients and water were added on a regular basis and supplemental lighting was provided with overhead metal halide 1000-Watt lamps as necessary. The plants were employed for testing when they reached the second or third true leaf stage.
(§2) Emulsifiable concentrates of each of each pyridine carboxylate herbicide (Compound A or Compound B) were prepared at 100 grams acid equivalent per liter (g ae/L). The emulsifiable concentrates also included a safener, cloquintocet-mexyl, at 120 grams active ingredient per liter (g ai/L). An aliquot of each emulsifiable concentrate was placed in a 25 mL glass vial and diluted with an aqueous mixture of 1.25% (v/v) ACTIROB® B esterified rapeseed oil (Bayer Crop Science, Research Triangle Park, N.C., USA) or MSO® Concentrate with LECI-TECH® methylated soybean oil (Loveland Products, Loveland, Colo., USA) to obtain concentrated stock solutions at the highest application rate for each herbicide, based upon a 12 milliliter (mL) application volume at a rate of 187 liters per hectare (L/ha). The concentrated stock solutions were further diluted with an aqueous mixture of 1.25% v/v ACTIROB® B or MSO® Concentrate with LECI-TECH® to obtain stock solutions at reduced application rates for each herbicide. Spray solutions of the herbicide combinations (Compound A or Compound B plus PDS inhibitor herbicide) were prepared by adding weighed amounts or aliquots of the PDS inhibitor herbicide to the stock solutions of Compound A or Compound B to form 12-mL spray solutions in two- or three-way combinations.
(§3) The spray solutions were applied to the plant material with an overhead Mandel track sprayer equipped with 8002E nozzles calibrated to deliver 187 L/ha over an application area of 0.503 square meters (m^2) at a spray height of 18 inches ([…] centimeters (cm)) above the average plant canopy. Control plants were sprayed in the same manner with the solvent blank. All pyridine carboxylate herbicide (component a) application rates are given as “g ae/ha” and all PDS inhibitor herbicide (component b) application rates are given as “g ai/ha.”
(§4) The treated plants and control plants were placed in a greenhouse as described above and watered by sub-irrigation to prevent wash-off of the test compounds. After 20-22 d, the condition of the test plants as compared with that of the control plants was determined visually and scored on a scale of 0 to 100 percent where 0 corresponds to no injury and 100 corresponds to complete kill.

[2] = system: Russian thistle (SASKR, Salsola kali); experiment: as above; format: in vivo
Source text: as §1, §2, §3, §4

[3] = system: common lambsquarters (CHEAL, Chenopodium album L.); experiment: as above; format: in vivo
Source text: as §1, §2, §3, §4

[4] = system: pigweed (AMARE, Amaranthus retroflexus); experiment: as above; format: in vivo
Source text: as §1, §2, §3, §4

[5] = system: spring rape (BRSNN, Brassica napus); experiment: as above; format: in vivo
Source text: as §1, §2, §3, §4

[6] = system: wild buckwheat (POLCO, Polygonum convolvulus); experiment: as above; format: in vivo
Source text: as §1, §2, §3, §4

[7] = system: wild chamomile (MATCH, Matricaria chamomilla); experiment: as above; format: in vivo
Source text: as §1, §2, §3, §4

[8] = system: wild mustard (SINAR, Sinapis arvensis); experiment: as above; format: in vivo
Source text: as §1, §2, §3, §4

[9] = system: spring wheat (TRZAS); experiment: Greenhouse postemergence phytotoxicity on crop, visual injury after 20-22 d; format: in vivo, Triticum aestivum
Source text: as §1, §2, §3, §4

[10] = system: spring barley (HORVS); experiment: as above; format: in vivo, Hordeum vulgare
Source text: as §1, §2, §3, §4

[11] = system: kochia (KCHSC, Kochia scoparia); experiment: Greenhouse postemergence herbicidal effect, visual injury after 20-22 d; format: in vivo
Source text: as §1, §2, §3, §4

[12] = system: Italian ryegrass (LOLMU, Lolium multiflorum.); experiment: as above; format: in vivo; conditions: 12.5 g/ha, Table 4
Source text: as §1, §2, §3, §4

[13] = system: barnyardgrass (ECHCG, Echinochloa crus-galli); experiment: as above; format: in vivo; conditions: 12.5 g/ha, Table 4
Source text: as §1, §2, §3, §4

[14] = system: broad-leaf dock (RUMOB, Rumex obtusifolius); experiment: as above; format: in vivo; conditions: 12.5 g/ha, Table 4
Source text: as §1, §2, §3, §4

[15] = system: common rice (ORYSA, Oryza sativa); experiment: as above; format: in vivo; conditions: 12.5 g/ha, Table 4
Source text: as §1, §2, §3, §4

[16] = system: giant foxtail (SETFA, Setaria faberi); experiment: as above; format: in vivo; conditions: 12.5 g/ha, Table 4
Source text: as §1, §2, §3, §4

[17] = system: ivyleaf morningglory (IPOHE, Ipomoea hederacea); experiment: as above; format: in vivo; conditions: 12.5 g/ha, Table 4
Source text: as §1, §2, §3, §4

[18] = system: large crabgrass (DIGSA, Digitaria sanguinalis); experiment: as above; format: in vivo; conditions: 12.5 g/ha, Table 4
Source text: as §1, §2, §3, §4

[19] = system: soybean (GLXMA=Glycine max); experiment: as above; format: in vivo; conditions: 12.5 g/ha, Table 4
Source text: as §1, §2, §3, §4

[20] = system: velvetleaf (ABUTH, Abutilon theophrasti); experiment: as above; format: in vivo; conditions: 12.5 g/ha, Table 4
Source text: as §1, §2, §3, §4

[21] = system: wild pansy (VIOTR, Viola tricolor); experiment: as above; format: in vivo; conditions: 12.5 g/ha, Table 4
Source text: as §1, §2, §3, §4

[22] = system: winter rape (BRSNW, Brassica napus); experiment: as above; format: in vivo; conditions: 60 g/ha, Table 1
Source text: as §1, §2, §3, §4

Q: How did the “visual injury Obs” value ([1]; 280 g/ha, Table 3) turn out when Cn1cc(-c2ccccc2)c(=O)c(-c2cccc(C(F)(F)F)c2)c1 [Fluridone, 1-methyl-3-phenyl-5-[3-(trifluoromethyl)-phenyl]-4(1H)-pyridinone, reference compound] was run?
A: The value was 18%.

Q: What about the “visual injury Obs” value ([2]; 280 g/ha, Table 3) of the same compound?
A: The value was 0%.

Q: What about the “visual injury Obs” value ([3]; 280 g/ha, Table 3) of the same compound?
A: The value was 13%.

Q: What about the “visual injury Obs” value ([4]; 280 g/ha, Table 3) of the same compound?
A: The value was 23%.

Q: What about the “visual injury Obs” value ([5]; 280 g/ha, Table 3) of the same compound?
A: The value was 18%.

Q: And the “visual injury Obs” value ([6]; 280 g/ha, Table 3)?
A: Its value is 13%.

Q: What about the “visual injury Obs” value ([7]; 280 g/ha, Table 3) of the same compound?
A: The value was 5%.

Q: And the “visual injury Obs” value ([8]; 280 g/ha, Table 3)?
A: The value was 45%.

Q: And the “visual injury Obs” value ([9]; 280 g/ha, Table 3)?
A: The value was 0%.

Q: And the “visual injury Obs” value ([10]; 280 g/ha, Table 3)?
A: Its value is 0%.

Q: For CCC(Oc1ccc(F)c(C(F)(F)F)c1)C(=O)NCc1ccccc1 (stereo not shown) [Beflubutamid, 2-[4-fluoro-3-(trifluoromethyl)phenoxy]-N-(phenylmethyl)butanamide, reference compound], which “visual injury Obs” value ([2]; 42.5 g/ha, Table 2) is on record?
A: The value was 0%.

Q: What about the “visual injury Obs” value ([3]; 42.5 g/ha, Table 2) of the same compound?
A: The value was 0%.

Q: What about the “visual injury Obs” value ([11]; 42.5 g/ha, Table 2) of the same compound?
A: The value was 0%.

Q: And the “visual injury Obs” value ([5]; 42.5 g/ha, Table 2)?
A: Its value is 25%.

Q: And the “visual injury Obs” value ([6]; 42.5 g/ha, Table 2)?
A: Its value is 0%.

Q: And the “visual injury Obs” value ([7]; 42.5 g/ha, Table 2)?
A: Its value is 0%.

Q: And the “visual injury Obs” value ([8]; 42.5 g/ha, Table 2)?
A: The value was 5%.

Q: What about the “visual injury Obs” value ([9]; 42.5 g/ha, Table 2) of the same compound?
A: The value was 0%.

Q: And the “visual injury Obs” value ([10]; 42.5 g/ha, Table 2)?
A: Its value is 18%.

Q: For O=C(Nc1ccc(F)cc1)c1cccc(Oc2cccc(C(F)(F)F)c2)n1 [Picolinafen, N-(4-fluorophenyl)-6-[3-(trifluoromethyl)phenoxy]-2-pyridinecarboxamide, reference compound], which “visual injury Obs” value ([1]; 12.5 g/ha, Table 4) is on record?
A: The value was 5%.

Q: And the “visual injury Obs” value [12]?
A: Its value is 0%.

Q: What about the “visual injury Obs” value [13] of the same compound?
A: Its value is 0%.

Q: And the “visual injury Obs” value [14]?
A: The value was 0%.

Q: What about the “visual injury Obs” value ([3]; 12.5 g/ha, Table 4) of the same compound?
A: Its value is 20%.

Q: What about the “visual injury Obs” value [15] of the same compound?
A: The value was 5%.

Q: And the “visual injury Obs” value [16]?
A: The value was 0%.

Q: And the “visual injury Obs” value [17]?
A: Its value is 5%.

Q: What about the “visual injury Obs” value [18] of the same compound?
A: Its value is 50%.

Q: And the “visual injury Obs” value [19]?
A: Its value is 20%.

Q: What about the “visual injury Obs” value ([5]; 12.5 g/ha, Table 4) of the same compound?
A: The value was 28%.

Q: And the “visual injury Obs” value [20]?
A: The value was 15%.

Q: And the “visual injury Obs” value [21]?
A: The value was 0%.

Q: How did the visual injury ([1]; 60 g/ha, Table 1) turn out when O=C(Nc1ccc(F)cc1F)c1cccnc1Oc1cccc(C(F)(F)F)c1 [Diflufenican, N-(2,4-difluorophenyl)-2-[3-(trifluoromethyl)phenoxy]-3-pyridinecarboxamide, reference compound] was run?
A: The visual injury was 5%.

Q: And the visual injury ([2]; 60 g/ha, Table 1)?
A: The visual injury was 18%.

Q: What about the visual injury ([3]; 60 g/ha, Table 1) of the same compound?
A: Its visual injury is 13%.

Q: What about the visual injury ([11]; 60 g/ha, Table 1) of the same compound?
A: The visual injury was 13%.

Q: What about the visual injury ([4]; 60 g/ha, Table 1) of the same compound?
A: The visual injury was 20%.

Q: What about the visual injury ([6]; 60 g/ha, Table 1) of the same compound?
A: The visual injury was 10%.

Q: And the visual injury ([7]; 60 g/ha, Table 1)?
A: Its visual injury is 0%.

Q: And the visual injury ([8]; 60 g/ha, Table 1)?
A: The visual injury was 23%.

Q: What about the visual injury [22] of the same compound?
A: The visual injury was 18%.

Q: What about the visual injury ([9]; 60 g/ha, Table 1) of the same compound?
A: Its visual injury is 0%.

Q: What about the visual injury ([10]; 60 g/ha, Table 1) of the same compound?
A: Its visual injury is 13%.
